Assay results reported in patent publication US4145444A, “Anti-inflammatory agent of benzoyl derivative” (priority 1977, dated 1979).
Read-outs that look alike come from different tables or passages of the source.

How the values were obtained:
platelet = assay: Blood platelet aggregation inhibiting effect (collagen-induced); assay type: cell-based, rabbits; conditions: Oryctolagus cuniculus, Platelet; 10^-4 mole, collagen inducer, rabbit PRP; read-out: Blood platelet agg. inh.: percentage inhibition of platelet aggregation
From the text: Male rabbits (Japan original white strain 3.3 to 3.6 kg) were anesthetized with Thiopental sodium and blood was sampled from the carotid artery.

male mice = assay: Analgesic effect: painful stretchings following intraperitoneal 0.7% acetic acid; conditions: Mus musculus, po, read-out: Analgesic: percentage diminition of times of painful stretching
Method: Each sample was orally administered in the dosage of 100 mg/kg before injection of acetic acid.

hind paws of male rats = assay: Anti-inflammatory effect: acute carragheenin edema method; assay type: in vivo; conditions: Rattus norvegicus; for inhibition in vivo at 100 mg/kg: read-out: Anti-inf.: edema inhibition rate
Method: The edema was induced by subcutaneous injection of 1% carragheenin suspension in saline to the hind paws of male rats weighting 150 to 180 g. Each sample was orally given at the dosage of 100 mg/kg just before the inoculation of carragheenin.

thrombus = assay: Inhibiting effect on thrombosis (by-pass between left juglar vein and right carotid artery, silk thread); assay type: in vivo, SD type male rates; conditions: Rattus norvegicus, read-out: Thrombosis inh.: thrombosis inhibition rate
Method: The inhibiting effects of the samples of the invention on thrombosis were tested by the following test method.
A 0.5 ml of 50 μ/ml of the heparin physiological saline was added through the polyethylene tube before the first blood circulation. After the blood circulation for 15 minutes, the circulation was stopped in the middle of the tubing at artery side with a pinch cock.
Then, 0.2 ml of the heparin physiological saline was added to remove the blood coagulates on the tubing wall and another new polyethylene tubing filled with the heparin solution and containing a piece of new silk thread was attached between the venous and artery tubing ends.
The blood circulation was reestablished by opening the pinch cock. After 15 minutes, the wet weight of thrombus on the silk thread was similarly measured.
In the same manner, the third circulation was performed and wet weight of thrombus measured.
The amount of thrombus was given by the equation A. [formula] Each sample was suspended in an aqueous solution of sodium carboxymethyl cellulose and the oral dose of the suspension (100 mg/kg) was performed at 5 hours before the first blood circulation.
The amount of thrombus after the oral dose of the sample was calculated in the same manner as that of control circulations.
The thrombosis inhibition rate was given by the equation B. [formula]

[1] = 100 mg/kg oral, carragheenin edema, male rats (Table 2)
[2] = 100 mg/kg oral, 5 hours before first blood circulation, rats

Q: Which inhibition at 100 µM (platelet) does the source give for `CCCCc1ccc(C(=O)c2cccc(C)c2)cc1` [compound 88] here?
A: The inhibition at 100 µM was 24.5%.

Q: And the inhibition in vivo at 100 mg/kg (male mice)?
A: The inhibition in vivo at 100 mg/kg was 5.6%.

Q: And the inhibition in vivo at 100 mg/kg (hind paws of male rats; [1])?
A: The inhibition in vivo at 100 mg/kg was 21.6%.

Q: And the inhibition in vivo at 100 mg/kg (thrombus; [2])?
A: The inhibition in vivo at 100 mg/kg was 29.3%.

Q: `CCCCc1ccc(C(=O)c2ccccc2C)cc1` [compound 40] was tested. Which inhibition at 100 µM (platelet) did it give?
A: The inhibition at 100 µM was 11.9%.

Q: And the inhibition in vivo at 100 mg/kg (male mice)?
A: The inhibition in vivo at 100 mg/kg was 20.3%.

Q: And the inhibition in vivo at 100 mg/kg (hind paws of male rats; [1])?
A: Its inhibition in vivo at 100 mg/kg is 58.1%.

Q: And the inhibition in vivo at 100 mg/kg (thrombus; [2])?
A: Its inhibition in vivo at 100 mg/kg is 30.3%.

Q: Which results are given for `CCCCCCc1ccc(C(=O)C(=O)c2ccccc2)cc1` [compound 56]?
A: inhibition at 100 µM (platelet): 20.3%; inhibition in vivo at 100 mg/kg (male mice): 20.5%; inhibition in vivo at 100 mg/kg (hind paws of male rats; [1]): 14.9%; inhibition in vivo at 100 mg/kg (thrombus; [2]): 15.1%

Q: What does the source list for `O=C(c1ccccc1)c1ccccc1` [compound 27]?
A: inhibition at 100 µM (platelet): 25.7%; inhibition in vivo at 100 mg/kg (male mice): 13.2%; ED50 (hind paws of male rats; po, read-out: 50% inhibition ED50 (values in brackets)): 120 mg/kg; inhibition in vivo at 100 mg/kg (hind paws of male rats; po): 47.7%; inhibition in vivo at 100 mg/kg (thrombus; po, 5 h): 25.9%

Q: How did the inhibition at 100 µM (platelet) turn out when `CCc1ccc(C(=O)c2ccc(OC)cc2)cc1` [compound 107] was run?
A: The inhibition at 100 µM was 20.3%.

Q: And the inhibition in vivo at 100 mg/kg (male mice)?
A: The inhibition in vivo at 100 mg/kg was 13.2%.

Q: And the inhibition in vivo at 100 mg/kg (hind paws of male rats; po)?
A: Its inhibition in vivo at 100 mg/kg is 20.3%.

Q: And the inhibition in vivo at 100 mg/kg (thrombus; [2])?
A: Its inhibition in vivo at 100 mg/kg is 19.6%.

Q: Which results are given for `CCc1ccc(C(=O)c2ccc(C)cc2)cc1` [compound 33]?
A: inhibition at 100 µM (platelet): 20.5%; inhibition in vivo at 100 mg/kg (male mice): 15.5%; inhibition in vivo at 100 mg/kg (hind paws of male rats; [1]): 43.9%; inhibition in vivo at 100 mg/kg (thrombus; [2]): 28.3%

Q: How did the inhibition at 100 µM (platelet) turn out when `CCc1ccc(C(=O)c2ccccc2)cc1` [compound 66] was run?
A: Its inhibition at 100 µM is 20.7%.

Q: What about the inhibition in vivo at 100 mg/kg (male mice) of the same compound?
A: Its inhibition in vivo at 100 mg/kg is 15.7%.

Q: What about the inhibition in vivo at 100 mg/kg (hind paws of male rats; [1]) of the same compound?
A: Its inhibition in vivo at 100 mg/kg is 34.4%.

Q: And the inhibition in vivo at 100 mg/kg (thrombus; [2])?
A: Its inhibition in vivo at 100 mg/kg is 20.5%.

Q: `O=C(Cc1ccccc1)c1ccccc1` [compound 47] was tested. Which inhibition at 100 µM (platelet) did it give?
A: The inhibition at 100 µM was 18.3%.

Q: What about the inhibition in vivo at 100 mg/kg (male mice) of the same compound?
A: The inhibition in vivo at 100 mg/kg was 13.1%.

Q: And the inhibition in vivo at 100 mg/kg (hind paws of male rats; po)?
A: Its inhibition in vivo at 100 mg/kg is 20.9%.

Q: What about the inhibition in vivo at 100 mg/kg (thrombus; po, 5 h) of the same compound?
A: Its inhibition in vivo at 100 mg/kg is 15.6%.

Q: What does the source list for `CCCc1ccc(C(=O)c2ccc(C)cc2C)cc1` [compound 96]?
A: inhibition at 100 µM (platelet): 28.5%; inhibition in vivo at 100 mg/kg (male mice): 18.9%; inhibition in vivo at 100 mg/kg (hind paws of male rats; [1]): 26.1%; inhibition in vivo at 100 mg/kg (thrombus; [2]): 36.7%

Q: `Cc1ccc(C(=O)c2ccc(C)cc2)cc1` [compound 83] was tested. Which inhibition at 100 µM (platelet) did it give?
A: Its inhibition at 100 µM is 27.6%.

Q: And the inhibition in vivo at 100 mg/kg (male mice)?
A: Its inhibition in vivo at 100 mg/kg is 12.1%.

Q: And the inhibition in vivo at 100 mg/kg (hind paws of male rats; [1])?
A: The inhibition in vivo at 100 mg/kg was 20%.

Q: And the inhibition in vivo at 100 mg/kg (thrombus; [2])?
A: Its inhibition in vivo at 100 mg/kg is 19.3%.

Q: What does the source list for `COc1ccc(C(=O)c2ccccc2)c(OC)c1` [compound 74]?
A: inhibition at 100 µM (platelet): 18.5%; inhibition in vivo at 100 mg/kg (male mice): 24.2%; inhibition in vivo at 100 mg/kg (hind paws of male rats; [1]): 30.2%; inhibition in vivo at 100 mg/kg (thrombus; [2]): 28.9%

Q: What does the source list for `Cc1cc(C)c(C(=O)c2ccccc2F)c(C)c1` [compound 11]?
A: inhibition at 100 µM (platelet): 16.5%; inhibition in vivo at 100 mg/kg (male mice): 13.9%; inhibition in vivo at 100 mg/kg (hind paws of male rats; [1]): 62.3%; inhibition in vivo at 100 mg/kg (thrombus; [2]): 42.9%

Q: With `CCCCCCCCCCCc1ccc(C(=O)c2ccccc2)cc1` [compound 71] as the compound, how does the inhibition at 100 µM (platelet) read?
A: The inhibition at 100 µM was 19.5%.

Q: What about the inhibition in vivo at 100 mg/kg (male mice) of the same compound?
A: The inhibition in vivo at 100 mg/kg was 9.2%.

Q: What about the inhibition in vivo at 100 mg/kg (hind paws of male rats; [1]) of the same compound?
A: Its inhibition in vivo at 100 mg/kg is 20%.

Q: And the inhibition in vivo at 100 mg/kg (thrombus; [2])?
A: The inhibition in vivo at 100 mg/kg was 11.4%.

Q: `Cc1cc(C)c(C(=O)c2ccc(O)cc2)c(C)c1` [compound 108] was tested. Which inhibition at 100 µM (platelet) did it give?
A: The inhibition at 100 µM was 28.4%.

Q: And the inhibition in vivo at 100 mg/kg (male mice)?
A: Its inhibition in vivo at 100 mg/kg is 3.1%.

Q: What about the inhibition in vivo at 100 mg/kg (hind paws of male rats; [1]) of the same compound?
A: Its inhibition in vivo at 100 mg/kg is 10.5%.

Q: And the inhibition in vivo at 100 mg/kg (thrombus; [2])?
A: Its inhibition in vivo at 100 mg/kg is 34.7%.

Q: How did the inhibition at 100 µM (platelet) turn out when `CCCCOc1ccc(C(=O)Cc2ccc(Cl)cc2)cc1` [compound 61] was run?
A: Its inhibition at 100 µM is 15.8%.

Q: And the inhibition in vivo at 100 mg/kg (male mice)?
A: The inhibition in vivo at 100 mg/kg was 15.1%.

Q: And the inhibition in vivo at 100 mg/kg (hind paws of male rats; [1])?
A: Its inhibition in vivo at 100 mg/kg is 16.7%.

Q: What about the inhibition in vivo at 100 mg/kg (thrombus; [2]) of the same compound?
A: The inhibition in vivo at 100 mg/kg was 8.5%.

Q: What does the source list for `CCCCCc1ccc(C(=O)c2ccc(CCCCC)cc2)cc1` [compound 111]?
A: inhibition at 100 µM (platelet): 10.3%; inhibition in vivo at 100 mg/kg (male mice): 11.3%; inhibition in vivo at 100 mg/kg (hind paws of male rats; [1]): 20.6%; inhibition in vivo at 100 mg/kg (thrombus; [2]): 17.3%

Q: For `CCCCOc1ccc(C(=O)c2ccc(CCCC)cc2)cc1` [compound 95], which inhibition at 100 µM (platelet) is on record?
A: The inhibition at 100 µM was 30%.

Q: What about the inhibition in vivo at 100 mg/kg (male mice) of the same compound?
A: Its inhibition in vivo at 100 mg/kg is 14.5%.

Q: What about the inhibition in vivo at 100 mg/kg (hind paws of male rats; [1]) of the same compound?
A: Its inhibition in vivo at 100 mg/kg is 17.1%.

Q: And the inhibition in vivo at 100 mg/kg (thrombus; [2])?
A: The inhibition in vivo at 100 mg/kg was 32.3%.

Q: Which inhibition at 100 µM (platelet) does the source give for `CCCCCCc1ccc(C(=O)c2ccccc2)cc1` [compound 24] here?
A: Its inhibition at 100 µM is 10.5%.

Q: And the inhibition in vivo at 100 mg/kg (male mice)?
A: The inhibition in vivo at 100 mg/kg was 47.7%.

Q: And the inhibition in vivo at 100 mg/kg (hind paws of male rats; [1])?
A: Its inhibition in vivo at 100 mg/kg is 37.6%.

Q: What about the inhibition in vivo at 100 mg/kg (thrombus; [2]) of the same compound?
A: The inhibition in vivo at 100 mg/kg was 24.3%.

Q: What does the source list for `Cc1cc(C)c(C(=O)c2ccccc2)cc1C` [compound 32]?
A: inhibition at 100 µM (platelet): 12.4%; inhibition in vivo at 100 mg/kg (male mice): 26.2%; inhibition in vivo at 100 mg/kg (hind paws of male rats; [1]): 47.7%; inhibition in vivo at 100 mg/kg (thrombus; [2]): 25%

Q: For `CCc1ccc(CC)c(C(=O)c2ccccc2)c1` [compound 80], which inhibition at 100 µM (platelet) is on record?
A: Its inhibition at 100 µM is 30.3%.

Q: What about the inhibition in vivo at 100 mg/kg (male mice) of the same compound?
A: The inhibition in vivo at 100 mg/kg was 16.2%.

Q: What about the inhibition in vivo at 100 mg/kg (hind paws of male rats; [1]) of the same compound?
A: Its inhibition in vivo at 100 mg/kg is 31.9%.

Q: What about the inhibition in vivo at 100 mg/kg (thrombus; [2]) of the same compound?
A: The inhibition in vivo at 100 mg/kg was 28.5%.

Q: What does the source list for `Cc1ccc(C(=O)c2c(C)cc(C)cc2C)cc1` [compound 86]?
A: inhibition at 100 µM (platelet): 28.3%; inhibition in vivo at 100 mg/kg (male mice): 8.3%; inhibition in vivo at 100 mg/kg (hind paws of male rats; [1]): 17.7%; inhibition in vivo at 100 mg/kg (thrombus; [2]): 35.6%
